From publication PMC8878464, “Fenchone Derivatives as a Novel Class of CB2 Selective Ligands: Design, Synthesis, X-ray Structure and Therapeutic Potential” (Molecules, 2022)
Values joined by “and” are separate entries in the source; they are usually repeats but may differ in a detail not shown here. Identical values can stand only once. “Also recorded” adds a separate entry of the source. Like-named read-outs stand apart in the source and are kept apart here.

Columns and labels:
[1] = molecular target: T1, human CB1R (hCB1R) (Homo sapiens, UniProt P21554); experiment: [3H]CP-55,940 competition displacement binding assay, hCB1R membranes
T1 construct: purchased Charles River A317
Procedure: (§1) The compounds were further characterized using a radioligand binding assay to determine their affinities for CB1R and CB2R based on each test compound’s ability to displace the radiolabeled CB1R/CB2R agonist CP-55,940 from membranes of cells expressing the human CB1R and CB2R [24].
(§2) Membranes from cells expressing hCB1R and hCB2R were purchased from Charles River, (Cat#A317 and A318, respectively; OH, USA). Solutions of test compounds ranging from 0.1 nM to 10 mM were prepared in DMSO. The desired amount of membrane preparation was diluted with ice-cold assay buffer (50 mM Tris-HCl, 2.5 mM EDTA, 5 mM MgCl2, 0.1% BSA, pH 7.4) and was vortexed. […] The assays were incubated for 90 min at 30 °C and then immediately filtered on WHATMAN GF/B Filter Paper (Fired) using a Brandel M-24R Harvester followed by six washes with ice cold wash buffer (50 mM Tris-HCl, 2.5 mM EDTA, 5 mM MgCl2, 0.1% BSA, pH 7.4). Radioactivity was detected by adding the Filter Paper directly to the ULTIMA GOLD scintillation cocktail (PerkinElmer, Waltham, MA, USA), incubation at 20 °C for 60 min and then counted using a Tri-Carb 4910TR liquid scintillation counter (PerkinElmer, Waltham, MA, USA).

[2] = molecular target: human CB2R (hCB2R) (Homo sapiens, UniProt P34972); experiment: [3H]CP-55,940 competition displacement binding assay, hCB2R membranes
Procedure: as §1, §2
Each curve represents the mean of three experiments performed in triplicate.

[3] = system: zymosan-induced paw inflammation; experiment: Zymosan-induced hind paw swelling (oedema) in mice; format: in vivo; details: 6 h after 60 μg zymosan paw injection
[4] = molecular target: T2, hCB2R (Homo sapiens, UniProt P34972); experiment: [35S]GTPγS binding assay at hCB2R; format: biochemical; details: for functional activity at hCB2R (agonist / antagonist / inverse agonist): [35S]GTPγS binding; for EC50: increase in [35S]GTPγS binding to hCB2R, two independent experiments in triplicate
T2 construct: purchased Charles River A318; host or cells: CHO-K1 cells
Procedure: The method used for measuring agonist-stimulated binding of [^35S]GTPγS was based on a described protocol. Membranes (5 μg protein) were incubated in GTPγS assay buffer (50 mM Tris HCl (pH 7.4), 0.2 mM EGTA, 9 mM MgCl2, 150 mM NaCl, 1 mg/mL BSA) containing 100 μM GDP, 0.05 nM [^35S]GTPγS and test compounds at various concentrations. Vacuum filtration was used to separate bound ligand from free ligand. We used 10 μM GTPS to determine nonspecific binding. Basal binding was assayed in the absence of the ligand and in the presence of GDP.
Each symbol represents the mean percentage increase in [^35S]GTPγS binding ± SE.

[5] = system: TNF-α; experiment: Serum TNF-α (ELISA) after zymosan injection in mice; format: in vivo; details: 24 h after zymosan
Procedure: Control mice were injected with vehicle.
A mouse TNFα ELISA kit was used according to the manufacturer’s instructions (R&D Systems, Minneapolis, MN, USA).

[6] = system: zymosan-induced hyperalgesia; experiment: von Frey monofilament pain assay in zymosan-injected mice; format: in vivo; details: 15 and 25 mg/kg ip, after 6 h, p < 0.01
Procedure: We injected 40 μL of 1.5% (w/v) zymosan A in 0.9% saline into the right hind paw of the mice to induce inflammation. […] Control mice were injected with vehicle. Paw swelling and pain perception were measured after 2, 6 and 24 h.

[7] = displacement of [3H]CP-55,940, membranes of CHO-K1 cells expressing human CB2R, read-out: Ki (nM) hCB2R
[8] = maximal effect as percentage of HU-308 response at 1 µM

T1 sequence (P21554 whole entry): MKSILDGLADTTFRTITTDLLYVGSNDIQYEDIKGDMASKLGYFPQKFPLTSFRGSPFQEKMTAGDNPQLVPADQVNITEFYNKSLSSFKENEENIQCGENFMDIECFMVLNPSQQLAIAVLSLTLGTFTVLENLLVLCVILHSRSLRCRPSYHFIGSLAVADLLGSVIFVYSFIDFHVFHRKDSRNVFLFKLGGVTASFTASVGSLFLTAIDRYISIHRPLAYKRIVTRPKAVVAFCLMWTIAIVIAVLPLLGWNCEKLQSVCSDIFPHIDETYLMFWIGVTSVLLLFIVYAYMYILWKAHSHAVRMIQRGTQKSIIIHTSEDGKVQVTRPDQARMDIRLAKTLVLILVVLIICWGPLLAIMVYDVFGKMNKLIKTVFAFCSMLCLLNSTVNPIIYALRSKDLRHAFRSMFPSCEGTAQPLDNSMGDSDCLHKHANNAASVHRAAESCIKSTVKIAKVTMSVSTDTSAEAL
T2 sequence (P34972 whole entry): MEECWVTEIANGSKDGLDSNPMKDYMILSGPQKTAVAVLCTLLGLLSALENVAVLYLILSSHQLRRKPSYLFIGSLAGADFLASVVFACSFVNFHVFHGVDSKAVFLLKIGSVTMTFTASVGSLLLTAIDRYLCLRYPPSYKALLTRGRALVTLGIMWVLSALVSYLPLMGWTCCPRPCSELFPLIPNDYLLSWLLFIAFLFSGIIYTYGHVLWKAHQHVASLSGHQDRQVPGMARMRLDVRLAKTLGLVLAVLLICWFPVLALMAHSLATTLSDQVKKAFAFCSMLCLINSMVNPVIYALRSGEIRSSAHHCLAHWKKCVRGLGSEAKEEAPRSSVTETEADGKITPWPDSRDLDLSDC
human CB2R (hCB2R), sequence (P34972 whole entry): as above

Row | Compound | Ki ([1]; read-out: Ki (nM) hCB1R) [nM] | Ki [2, 7] | functional activity at hCB2R (agonist / antagonist / inverse agonist) [4] | EC50 [4] [nM] | further results
1 | 2-(2′-Methoxy-5′-octylphenyl)-1,3,3-trimethylbicyclo[2.2.1]heptan-2-ol [Compound 3g] |  |  |  |  | Ki ([1]; displacement of [3H]CP-55,940, class word NB, read-out: Ki (nM) hCB1R): > 10000 nM
2 | CCCCCc1cc(OC)c(C2(O)C3(C)CCC(C3)C2(C)C)c(OC)c1 (stereo not shown) [Compound 1a, 2-(2′,6′-Dimethoxy-4′-pentylphenyl)-1,3,3-trimethylbicyclo[2.2.1]heptan-2-ol] | > 10000 | 47.7 nM |  |  | inhibition of [3H]CP-55,940 binding to hCB1R ([1]; result in words): no measurable inhibition
3 | CCCCCc1cc(OC)c(C2(O)C3(C)CCC(C3)C2(C)C)c(OC)c1 (stereo not shown) [Compound 1b, 2-(2′,6′-Dimethoxy-4′-pentylphenyl)-1,3,3-trimethylbicyclo[2.2.1]heptan-2-ol] |  | 14.4 nM | agonist | 11.6 | reduction in swelling ([3]; 25 mg/kg ip): 54%; E(max)% [4]: 65.1%; inhibition of TNF-α serum levels ([5]; 25 mg/kg ip): 39%
4 | CCCCCCC(C)(C)c1cc(OC)c(C2(O)C3(C)CCC(C3)C2(C)C)c(OC)c1 (stereo not shown) [Compound 1c, 2-(2′,6′-Dimethoxy-4′-(2″-methyloctan-2″-yl)phenyl)-1,3,3-trimethylbicyclo[2.2.1]heptan-2-ol] | > 10000 | 56.8 nM | agonist | 121 | 
5 | CCCCCCC(C)(C)c1cc(OC)c(C2(O)C3(C)CCC(C3)C2(C)C)c(OC)c1 (stereo not shown) [Compound 1d, 2-(2′,6′-Dimethoxy-4′-(2″-methyloctan-2″-yl)phenyl)-1,3,3-trimethylbicyclo[2.2.1]heptan-2-ol] |  |  |  | 2.59 | reduction in swelling ([3]; 15 mg/kg ip): 30%; reduction in swelling ([3]; 25 mg/kg ip): 54%; E(max)% [4, 8]: 89.6%; inhibition of TNF-α serum levels ([5]; 15 mg/kg ip): 26%; inhibition of TNF-α serum levels ([5]; 25 mg/kg ip): 40%; Ki ([2]; Ki (nM) hCB2R): 3.51 nM; anti-nociceptive effect (paw withdrawal threshold, von Frey) [6]: strong anti-nociceptive effects
6 | COc1cc(C)cc(OC)c1C1(O)C2(C)CCC(C2)C1(C)C (stereo not shown) [Compound 1e, 2-(2′,6′-Dimethoxy-4′-methylphenyl)-1,3,3-trimethylbicyclo[2.2.1]heptan-2-ol] | > 10000 |  |  |  | Ki ([2]; displacement of [3H]CP-55,940, value given in µM, read-out: Ki (nM) hCB2R): > 10000 nM
7 | COc1cc(C)cc(OC)c1C1(O)C2(C)CCC(C2)C1(C)C (stereo not shown) [Compound 1f, 2-(2′,6′-Dimethoxy-4′-methylphenyl)-1,3,3-trimethylbicyclo[2.2.1]heptan-2-ol] |  | 233 nM |  |  | 
8 | CCCCCCc1ccc(OC)c(C2(O)C3(C)CCC(C3)C2(C)C)c1OC (stereo not shown) [Compound 2a, 2-(3′-Hexyl-2′,6′-dimethoxyphenyl)-1,3,3-trimethylbicyclo[2.2.1]heptan-2-ol] | > 10000 | 224 nM and 223 nM |  |  | 
9 | CCCCCCc1ccc(OC)c(C2(O)C3(C)CCC(C3)C2(C)C)c1OC (stereo not shown) [Compound 2b, 2-(3′-Hexyl-2′,6′-dimethoxyphenyl)-1,3,3-trimethylbicyclo[2.2.1]heptan-2-ol] |  | 73.4 nM | weakly stimulated; also recorded: agonist | 1940 | E(max)% [4]: 46.2%
10 | CCCc1ccc(OC)c(C2(O)C3(C)CCC(C3)C2(C)C)c1 (stereo not shown) [Compound 3a, 2-(2′-Methoxy-5′-propylphenyl)-1,3,3-trimethylbicyclo[2.2.1]heptan-2-ol] | > 10000 | 1010 nM |  |  | 
11 | CCCc1ccc(OC)c(C2(O)C3(C)CCC(C3)C2(C)C)c1 (stereo not shown) [Compound 3b, 2-(2′-Methoxy-5′-propylphenyl)-1,3,3-trimethylbicyclo[2.2.1]heptan-2-ol] |  | 610 nM |  |  | 
12 | CCCCCc1ccc(OC)c(C2(O)C3(C)CCC(C3)C2(C)C)c1 (stereo not shown) [Compound 3c, 2-(2′-Methoxy-5′-pentylphenyl)-1,3,3-trimethylbicyclo[2.2.1]heptan-2-ol] | > 10000 | 444 nM |  |  | 
13 | CCCCCc1ccc(OC)c(C2(O)C3(C)CCC(C3)C2(C)C)c1 (stereo not shown) [Compound 3d, 2-(2′-Methoxy-5′-pentylphenyl)-1,3,3-trimethylbicyclo[2.2.1]heptan-2-ol] |  | 834 nM |  |  | 
14 | CCC(C)(C)c1ccc(OC)c(C2(O)C3(C)CCC(C3)C2(C)C)c1 (stereo not shown) [Compound 3e, 2-(2′-Methoxy-5′-(tert-pentyl)phenyl)-1,3,3-trimethylbicyclo[2.2.1] heptan-2-ol] | > 10000 | 2870 nM |  |  | 
15 | CCC(C)(C)c1ccc(OC)c(C2(O)C3(C)CCC(C3)C2(C)C)c1 (stereo not shown) [Compound 3f, 2-(2′-Methoxy-5′-(tert-pentyl)phenyl)-1,3,3-trimethylbicyclo[2.2.1] heptan-2-ol] |  | 1450 nM |  |  | 
16 | CCCCCCCCc1ccc(OC)c(C2(O)C3(C)CCC(C3)C2(C)C)c1 (stereo not shown) [Compound 3h, 2-(2′-Methoxy-5′-octylphenyl)-1,3,3-trimethylbicyclo[2.2.1]heptan-2-ol] | > 10000 |  |  |  | 
17 | CCCCCc1cc(OC)c(C2(O)C3(C)CCC(C3)C2(C)C)c(OC)c1F (stereo not shown) [Compound 4a, 2-(3′-Fluoro-2′,6′-dimethoxy-4′-pentylphenyl)-1,3,3-trimethylbicyclo[2.2.1]heptan-2-ol] | > 10000 | 155 nM |  |  | 
18 | CCCCCc1cc(OC)c(C2(O)C3(C)CCC(C3)C2(C)C)c(OC)c1F (stereo not shown) [Compound 4b, 2-(3′-Fluoro-2′,6′-dimethoxy-4′-pentylphenyl)-1,3,3-trimethylbicyclo[2.2.1]heptan-2-ol] |  | 28.3 nM | agonist | 305 | E(max)% [4, 8]: 54.2%
19 | CCCCCCC(C)(C)c1cc(OC)c(C2(O)C3(C)CCC(C3)C2(C)C)c(OC)c1F (stereo not shown) [Compound 4c, 2-(3′-fluoro-2′,6′-dimethoxy-4′-(2″-methyloctan-2″-yl)phenyl)-1,3,3-trimethylbicyclo[2.2.1]heptan-2-ol] | > 10000 | 438 nM |  |  | 
20 | CCCCCCC(C)(C)c1cc(OC)c(C2(O)C3(C)CCC(C3)C2(C)C)c(OC)c1F (stereo not shown) [Compound 4d, 2-(3′-fluoro-2′,6′-dimethoxy-4′-(2″-methyloctan-2″-yl)phenyl)-1,3,3-trimethylbicyclo[2.2.1]heptan-2-ol] |  | 56.6 nM | agonist | 104 | E(max)% [4, 8]: 119%
21 | CCCCCc1cc(O)c(C2(O)C3(C)CCC(C3)C2(C)C)c(OC)c1 (stereo not shown) [Compound 5a, 2-(2′-hydroxy-6′-methoxy-4′-pentylphenyl)-1,3,3-trimethylbicyclo[2.2.1]heptan-2-ol] | > 10000 | 4980 nM |  |  | 
22 | CCCCCc1cc(O)c(C2(O)C3(C)CCC(C3)C2(C)C)c(OC)c1 (stereo not shown) [Compound 5b, 2-(2′-hydroxy-6′-methoxy-4′-pentylphenyl)-1,3,3-trimethylbicyclo[2.2.1]heptan-2-ol] |  | 36.5 nM | agonist | 82.8 | E(max)% [4]: 69.5%
23 | CCCCCCC(C)(C)c1cc(O)c(C2(O)C3(C)CCC(C3)C2(C)C)c(OC)c1 (stereo not shown) [Compound 5c, 2-(2′-Hydroxy-6′-methoxy-4′-(2″-methyloctan-2″-yl)phenyl)-1,3,3-trimethylbicyclo-[2.2.1]heptan-2-ol] | > 10000 | 107 nM |  |  | 
24 | CCCCCCC(C)(C)c1cc(O)c(C2(O)C3(C)CCC(C3)C2(C)C)c(OC)c1 (stereo not shown) [Compound 5d, 2-(2′-Hydroxy-6′-methoxy-4′-(2″-methyloctan-2″-yl)phenyl)-1,3,3-trimethylbicyclo-[2.2.1]heptan-2-ol] |  |  | agonist | 14.8 | E(max)% [4, 8]: 105%; Ki ([2]; Ki (nM) hCB2R): 24.6 nM and 24.5 nM
25 | CCCCCCC(C)(C)c1cc(OC)c([C@@H]2C=C(CO)[C@@H]3C[C@H]2C3(C)C)c(OC)c1 [HU-308, reference compound] |  |  | agonist |  | reduction in swelling ([3]; 25 mg/kg ip): 20%; Ki [1]: > 10000 nM; E(max)% [4, 8]: 100%; inhibition of TNF-α serum levels ([5]; 25 mg/kg ip): 28%
